Consider two compounds from patent publication US8269043B2, “Bicyclic aryl sphingosine 1-phosphate analogs” (Biogen Idec MA Inc., priority 2008, dated 2012).

Assay [1] has as its system sphingosine kinase 2 (SK2). In words: Sphingosine kinase 2 (SK2) substrate assay with lysate of transfected HEK293E cells, HPLC detection. The assay is classed as biochemical, canine, mouse, or human. As to conditions: 20 μM test compound, 37° C., 70 minutes, HPLC with and without added SPHK2 (FIG. 7). As to the method:
To assay a test compound for its properties as a substrate of sphingosine kinase 2 (SK2), an assay using recombinantly expressed SK2 was used. Briefly, HEK293E cells were transiently transfected with plasmids containing DNA encoding a sphingosine kinase 2 (SK2) (canine, mouse, or human). […]
The SK2 kinase assay was performed in a 200 μL reaction mixture containing 20 μm sphingosine (control) or 20 μM test compound (prepared as a 200 μM stock solution containing 0.1% fatty acid-free bovine serum albumin (BSA)), 38 μL lysate, and 2 μM ATP (freshly prepared). Kinase reactions were incubated at 37° C. for 70 minutes followed by detection of phosphorylated compound (control or test compound) using UV absorbance at 282 nm. […] The supernatant was analyzed on HPLC using a C18 column (FIG. 7). The parent and phosphorylated test compound were quantitated using area under the curve (AUC) calculation. […]

Assay [2] concerns the target T1, human S1P1 (Homo sapiens, UniProt P21453).
T1 construct: host or cells: recombinant CHEM cells
Nature of the assay: Calcium mobilization assay, agonist activity at human S1P1. The assay is classed as cell-based. The conditions noted are these: recombinant CHEM cells expressing human S1P1, FLIPR Calcium 4 dye (FIG. 8, FIG. 11). As to the method: (§1) Compounds that were not specific for the S1P, receptor, can have activity for other S1P receptor subtypes, e.g., S1P2, S1P3, S1P4, or S1P5, and can cause undesirable side effects. Accordingly, compounds were tested to identify those that were specific for S1P1 activity and had little or no activity, or are antagonists of, S1P3 activity. Accordingly, the test compounds were tested in a calcium mobilization assay to determine agonist activity at either the human S1P1 or human S1P3 receptor, and antagonist activity only at the human S1P3 receptor. The procedure was essentially as described (with modifications described below) in Davis et al. (2005) Journal of Biological Chemistry, vol. 280, pp. 9833-9841, which is incorporated by reference in its entirety. Calcium mobilization assays were performed in recombinant CHEM cells expressing human S1P1 or S1P3 purchased from Millipore (Billerica, Mass.). To detect free intracellular calcium, S1P1 or S1P3 cells were loaded with FLIPR Calcium 4 dye from Molecular Devices (Sunnyvale, Calif.). Cells were imagined for calcium mobilization using a FLIPR^TETRA equipped with a 96-well dispense head.
In general terms: Calcium flux is commonly read through the fluorescence of an indicator in the cells.

For assay [3], the target named is T2, human S1P3 receptor (Homo sapiens, UniProt Q99500).
T2 construct: host or cells: recombinant CHEM cells
Nature of the assay: Calcium mobilization assay, agonist activity at human S1P3. The assay is classed as cell-based. The conditions noted are these: recombinant CHEM cells expressing human S1P3, FLIPR Calcium 4 dye (FIG. 9, FIG. 11). As to the method: as §1

The target in assay [4] is T2, human S1P3 receptor. In words: Calcium mobilization assay, antagonist activity at human S1P3. Format: cell-based. As to conditions: recombinant CHEM cells expressing human S1P3, FLIPR Calcium 4 dye (FIG. 10, FIG. 11). As to the method:
as §1

T2 sequence (Q99500 whole entry): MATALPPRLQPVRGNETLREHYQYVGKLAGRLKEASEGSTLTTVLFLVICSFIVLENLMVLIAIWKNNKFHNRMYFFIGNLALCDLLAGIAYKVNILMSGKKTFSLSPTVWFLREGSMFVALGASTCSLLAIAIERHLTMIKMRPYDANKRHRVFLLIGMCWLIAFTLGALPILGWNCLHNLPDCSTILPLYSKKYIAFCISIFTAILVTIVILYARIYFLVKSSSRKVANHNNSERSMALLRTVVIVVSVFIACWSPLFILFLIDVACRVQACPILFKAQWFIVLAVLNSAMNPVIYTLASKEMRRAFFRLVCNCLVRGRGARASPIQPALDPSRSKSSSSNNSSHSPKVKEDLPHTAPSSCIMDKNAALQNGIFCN
T1 sequence (P21453 whole entry): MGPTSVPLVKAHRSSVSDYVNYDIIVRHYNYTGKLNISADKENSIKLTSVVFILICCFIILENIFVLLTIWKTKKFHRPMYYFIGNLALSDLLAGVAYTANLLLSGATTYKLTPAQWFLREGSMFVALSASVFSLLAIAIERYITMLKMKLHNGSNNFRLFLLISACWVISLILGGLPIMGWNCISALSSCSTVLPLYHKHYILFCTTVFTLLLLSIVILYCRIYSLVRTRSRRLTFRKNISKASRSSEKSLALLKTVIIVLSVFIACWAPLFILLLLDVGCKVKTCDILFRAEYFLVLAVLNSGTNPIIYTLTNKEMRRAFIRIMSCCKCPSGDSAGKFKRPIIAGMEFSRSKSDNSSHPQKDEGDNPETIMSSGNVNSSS

Consider `CCCC[C@H]1CC[C@@H](Oc2ccc3cc([C@@](C)(N)COP(=O)(O)O)ccc3c2C(F)(F)F)CC1` (relative stereo) [Example 21, (R)-2-amino-2-(6-(cis-4-butylcyclohexyloxy)-5-(trifluoromethyl)naphthalen-2-yl)propan-1-phosphoric acid], for which, in assay [1], the “phosphorylation of test compound by SPHK2” value was “the compound is phosphorylated under these conditions”. The S1P1 agonist activity result in assay [2] is recorded as “agonists of the S1P, receptor, with potencies similar to S1P”. Also, in assay [3], the S1P3 agonist activity result is reported as “weak micromolar partial S1P3 agonist activity”. In assay [4], the S1P3 antagonist activity entry is “do not antagonize the S1P3 receptor”.

Turning to `C[C@](N)(COP(=O)(O)O)c1ccc2c(C(F)(F)F)c(O[C@H]3CC[C@H](C(F)(F)F)CC3)ccc2c1` [Example 269, Phosphoric acid mono-{(R)-2-amino-2-[5-trifluoromethyl-6-(trans-4-trifluoromethyl-cyclohexyloxy)-naphthalen-2-yl]-propyl}ester], in assay [2], the S1P1 agonist activity result was “S1P, agonists”. The S1P3 agonist activity entry in assay [3] is recorded as “not S1P3 agonists”. Besides, the S1P3 antagonist activity entry in assay [4] is given as “S1P3 antagonists”.
